# US20220323406A1, “METHODS AND COMPOSITIONS FOR DIFFERENTIATING STEM CELLS” (Massachusetts Institute of Technology, priority 2019, published 2022)
# Assays:
# ENR+CD organoids = experiment: Primary screen: ATP (CellTiter-Glo 3D, CTG) cell number/viability, 2.5-D 384-well ENR+CD organoids; conditions: primary screen; for Z.CTG: standard z score;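 as to all read-outs here: compounds given at plating and again on day 3 over a 6-day differentiation from ENR+CV stem-cell-enriched precursors, ATP measured on day 6, plate median as control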
# [1] = test system: ENR+CD organoids (ISC to Paneth cell differentiation); experiment: Primary screen: CCh-stimulated lysozyme secretion LYZ.S, 2.5-D 384-well ENR+CD organoid differentiation; format: cell-based, mouse; conditions: primary screen
# Description: (§1) High-throughput screening.
# [2] = test system: ENR+CD organoids (ISC to Paneth cell differentiation); experiment: Primary screen: basal (non-stimulated) lysozyme secretion LYZ.NS, 2.5-D 384-well ENR+CD organoid differentiation; format: cell-based, mouse; conditions: primary screen; for Z.LYZ.NS: standard z score
# Description: as §1
# [3] = dose 0.08 uM, FC relative to plate median
# [4] = dose 0.40 uM, FC relative to plate median
# [5] = dose 2.00 uM, FC relative to plate median
# [6] = dose 10.00 uM, FC relative to plate median
# [7] = dose 0.08 uM, FC vs plate median
# [8] = dose 0.40 uM, FC vs plate median
# [9] = dose 2.00 uM, FC vs plate median
# [10] = dose 10.00 uM, FC vs plate median
smiles,measurement,setting,value
NC(=O)Nc1sc(-c2ccc(F)cc2)cc1C(N)=O [TPCA-1],Dose.FC.CTG,ENR+CD organoids; dose 0.08 uM,−0.061 log2 fold change
same,Z.CTG (standard z score),ENR+CD organoids; dose 0.08 uM,−0.146
same,Dose.FC.CTG,ENR+CD organoids; dose 0.40 uM,−0.004 log2 fold change
same,Z.CTG (standard z score),ENR+CD organoids; dose 0.40 uM,−0.010
same,Dose.FC.CTG,ENR+CD organoids; dose 2.00 uM,−0.005 log2 fold change
same,Z.CTG (standard z score),ENR+CD organoids; dose 2.00 uM,−0.012
same,Dose.FC.CTG,ENR+CD organoids; dose 10.00 uM,−0.531 log2 fold change
same,Z.CTG (standard z score),ENR+CD organoids; dose 10.00 uM,−1.269
same,Dose.FC.LYZ.S,[1]; dose 0.08 uM,0.041 log2 fold change
same,Dose.FC.LYZ.S,[1]; dose 0.40 uM,−0.029 log2 fold change
same,Dose.FC.LYZ.S,[1]; dose 2.00 uM,−0.054 log2 fold change
same,Dose.FC.LYZ.S,[1]; dose 10.00 uM,−0.294 log2 fold change
same,Dose.FC.LYZ.NS,[2]; dose 0.08 uM,0.072 log2 fold change
same,Z.LYZ.NS (standard z score),[2]; dose 0.08 uM,0.627
same,Dose.FC.LYZ.NS,[2]; dose 0.40 uM,−0.047 log2 fold change
same,Z.LYZ.NS (standard z score),[2]; dose 0.40 uM,−0.413
same,Dose.FC.LYZ.NS,[2]; dose 2.00 uM,−0.059 log2 fold change
same,Z.LYZ.NS (standard z score),[2]; dose 2.00 uM,−0.514
same,Dose.FC.LYZ.NS,[2]; dose 10.00 uM,−0.197 log2 fold change
same,Z.LYZ.NS (standard z score),[2]; dose 10.00 uM,−1.711
CN(C)CCc1c[nH]c2ccc(Cn3cncn3)cc12 [Rizatriptan Benzoate],Dose.FC.CTG,ENR+CD organoids; [3],0.214 log2 fold change
same,Dose.FC.CTG,ENR+CD organoids; [4],0.109 log2 fold change
same,Dose.FC.CTG,ENR+CD organoids; [5],0.126 log2 fold change
same,Dose.FC.CTG,ENR+CD organoids; [6],−0.054 log2 fold change
same,Dose.FC.LYZ.S,[1]; [3],0.179 log2 fold change
same,Dose.FC.LYZ.S,[1]; [4],0.019 log2 fold change
same,Dose.FC.LYZ.S,[1]; [5],−0.009 log2 fold change
same,Dose.FC.LYZ.S,[1]; [6],0.105 log2 fold change
same,Dose.FC.LYZ.NS,[2]; [3],0.070 log2 fold change
same,Z.LYZ.NS,[2]; dose 0.08 uM,0.613
same,Dose.FC.LYZ.NS,[2]; [4],0.148 log2 fold change
same,Z.LYZ.NS,[2]; dose 0.40 uM,1.289
same,Dose.FC.LYZ.NS,[2]; [5],0.027 log2 fold change
same,Z.LYZ.NS,[2]; dose 2.00 uM,0.238
same,Dose.FC.LYZ.NS,[2]; [6],0.000 log2 fold change
same,Z.LYZ.NS,[2]; dose 10.00 uM,−0.003
O=C(O)c1ccc(Nc2ncc3c(n2)-c2ccc(Cl)cc2C(c2c(F)cccc2F)=NC3)cc1 [MLN8054],Dose.FC.CTG,ENR+CD organoids; [7],0.026 log2 fold change
same,Dose.FC.CTG,ENR+CD organoids; [8],0.014 log2 fold change
same,Dose.FC.CTG,ENR+CD organoids; [9],−0.465 log2 fold change
same,Dose.FC.CTG,ENR+CD organoids; [10],−0.498 log2 fold change
same,Dose.FC.LYZ.S,[1]; [7],0.042 log2 fold change
same,Dose.FC.LYZ.S,[1]; [8],0.167 log2 fold change
same,Dose.FC.LYZ.S,[1]; [9],−0.087 log2 fold change
same,Dose.FC.LYZ.S,[1]; [10],−0.197 log2 fold change
same,Z.LYZ.NS,[2]; dose 0.08 uM,0.574
same,Z.LYZ.NS,[2]; dose 0.40 uM,0.066
same,Z.LYZ.NS,[2]; dose 2.00 uM,−0.868
same,Z.LYZ.NS,[2]; dose 10.00 uM,−0.979
same,Dose.FC.LYZ.NS,[2]; [7],0.066 log2 fold change
same,Dose.FC.LYZ.NS,[2]; [8],0.008 log2 fold change
same,Dose.FC.LYZ.NS,[2]; [9],−0.100 log2 fold change
same,Dose.FC.LYZ.NS,[2]; [10],−0.112 log2 fold change
O=C(C[S+]([O-])Cc1ccco1)NC/C=C\COc1cc(CN2CCCCC2)ccn1 (stereo not shown) [Lafutidine],Dose.FC.CTG (log2 fold change),ENR+CD organoids; dose 0.08 uM,0.152
same,Dose.FC.CTG (log2 fold change),ENR+CD organoids; dose 0.40 uM,0.145
same,Dose.FC.CTG (log2 fold change),ENR+CD organoids; dose 2.00 uM,0.138
same,Dose.FC.CTG (log2 fold change),ENR+CD organoids; dose 10.00 uM,−0.098
same,Dose.FC.LYZ.S (log2 fold change),[1]; dose 0.08 uM,0.052
same,Dose.FC.LYZ.S (log2 fold change),[1]; dose 0.40 uM,0.078
same,Dose.FC.LYZ.S (log2 fold change),[1]; dose 2.00 uM,0.076
same,Dose.FC.LYZ.S (log2 fold change),[1]; dose 10.00 uM,−0.014
same,Dose.FC.LYZ.NS (log2 fold change),[2]; dose 0.08 uM,0.043
same,Z.LYZ.NS (standard z score),[2]; dose 0.08 uM,0.372
same,Dose.FC.LYZ.NS (log2 fold change),[2]; dose 0.40 uM,0.007
same,Z.LYZ.NS (standard z score),[2]; dose 0.40 uM,0.059
same,Dose.FC.LYZ.NS (log2 fold change),[2]; dose 2.00 uM,0.037
same,Z.LYZ.NS (standard z score),[2]; dose 2.00 uM,0.320
same,Dose.FC.LYZ.NS (log2 fold change),[2]; dose 10.00 uM,0.075
same,Z.LYZ.NS (standard z score),[2]; dose 10.00 uM,0.657
C1=N/C2=N/c3ccc(OCCN4CCCC4)c(c3)COC/C=C/COCc3cccc(c3)C(=C1)N2 [Pacritinib (SB1518)],Z.CTG,ENR+CD organoids; dose 0.08 uM,−0.014
same,Z.CTG,ENR+CD organoids; dose 0.40 uM,0.236
same,Z.CTG,ENR+CD organoids; dose 2.00 uM,−0.560
same,Z.CTG,ENR+CD organoids; dose 10.00 uM,−3.047
same,Dose.FC.CTG,ENR+CD organoids; [7],−0.006 log2 fold change
same,Dose.FC.CTG,ENR+CD organoids; [8],0.099 log2 fold change
same,Dose.FC.CTG,ENR+CD organoids; [9],−0.235 log2 fold change
same,Dose.FC.CTG,ENR+CD organoids; [10],−1.276 log2 fold change
same,Dose.FC.LYZ.S,[1]; [7],0.066 log2 fold change
same,Dose.FC.LYZ.S,[1]; [8],−0.032 log2 fold change
same,Dose.FC.LYZ.S,[1]; [9],−0.304 log2 fold change
same,Dose.FC.LYZ.S,[1]; [10],−0.419 log2 fold change
same,Z.LYZ.NS,[2]; dose 0.08 uM,0.795
same,Z.LYZ.NS,[2]; dose 0.40 uM,−0.299
same,Z.LYZ.NS,[2]; dose 2.00 uM,−1.908
same,Z.LYZ.NS,[2]; dose 10.00 uM,−2.391
same,Dose.FC.LYZ.NS,[2]; [7],0.091 log2 fold change
same,Dose.FC.LYZ.NS,[2]; [8],−0.034 log2 fold change
same,Dose.FC.LYZ.NS,[2]; [9],−0.219 log2 fold change
same,Dose.FC.LYZ.NS,[2]; [10],−0.275 log2 fold change
C[C@]1(c2nc3c(C(N)=O)cccc3[nH]2)CCCN1 [Veliparib (ABT-888)],Dose.FC.CTG,ENR+CD organoids; dose 0.08 uM,0.128 log2 fold change
same,Z.CTG (standard z score),ENR+CD organoids; dose 0.08 uM,0.307
same,Dose.FC.CTG,ENR+CD organoids; dose 0.40 uM,0.055 log2 fold change
same,Z.CTG (standard z score),ENR+CD organoids; dose 0.40 uM,0.132
same,Dose.FC.CTG,ENR+CD organoids; dose 2.00 uM,−0.024 log2 fold change
same,Z.CTG (standard z score),ENR+CD organoids; dose 2.00 uM,−0.057
same,Dose.FC.CTG,ENR+CD organoids; dose 10.00 uM,−0.218 log2 fold change
same,Z.CTG (standard z score),ENR+CD organoids; dose 10.00 uM,−0.521
same,Dose.FC.LYZ.S,[1]; dose 0.08 uM,0.105 log2 fold change
same,Dose.FC.LYZ.S,[1]; dose 0.40 uM,0.179 log2 fold change
same,Dose.FC.LYZ.S,[1]; dose 2.00 uM,−0.016 log2 fold change
same,Dose.FC.LYZ.S,[1]; dose 10.00 uM,−0.136 log2 fold change
same,Dose.FC.LYZ.NS,[2]; dose 0.08 uM,0.075 log2 fold change
same,Z.LYZ.NS (standard z score),[2]; dose 0.08 uM,0.649
same,Dose.FC.LYZ.NS,[2]; dose 0.40 uM,0.139 log2 fold change
same,Z.LYZ.NS (standard z score),[2]; dose 0.40 uM,1.211
same,Dose.FC.LYZ.NS,[2]; dose 2.00 uM,0.023 log2 fold change
same,Z.LYZ.NS (standard z score),[2]; dose 2.00 uM,0.203
same,Dose.FC.LYZ.NS,[2]; dose 10.00 uM,−0.062 log2 fold change
same,Z.LYZ.NS (standard z score),[2]; dose 10.00 uM,−0.537
Cc1cccc(CC(=O)N2CCc3c2ccc(-c2cn(C)c4ncnc(N)c24)c3F)n1 [GSK2656157],Dose.FC.CTG (log2 fold change),ENR+CD organoids; dose 0.08 uM,0.068
same,Z.CTG (standard z score),ENR+CD organoids; dose 0.08 uM,0.162
same,Dose.FC.CTG (log2 fold change),ENR+CD organoids; dose 0.40 uM,0.115
same,Z.CTG (standard z score),ENR+CD organoids; dose 0.40 uM,0.274
same,Dose.FC.CTG (log2 fold change),ENR+CD organoids; dose 2.00 uM,0.083
same,Z.CTG (standard z score),ENR+CD organoids; dose 2.00 uM,0.197
same,Dose.FC.CTG (log2 fold change),ENR+CD organoids; dose 10.00 uM,0.119
same,Z.CTG (standard z score),ENR+CD organoids; dose 10.00 uM,0.284
same,Dose.FC.LYZ.S (log2 fold change),[1]; dose 0.08 uM,−0.008
same,Dose.FC.LYZ.S (log2 fold change),[1]; dose 0.40 uM,0.060
same,Dose.FC.LYZ.S (log2 fold change),[1]; dose 2.00 uM,−0.020
same,Dose.FC.LYZ.S (log2 fold change),[1]; dose 10.00 uM,0.090
same,Dose.FC.LYZ.NS (log2 fold change),[2]; dose 0.08 uM,−0.031
same,Z.LYZ.NS (standard z score),[2]; dose 0.08 uM,−0.267
same,Dose.FC.LYZ.NS (log2 fold change),[2]; dose 0.40 uM,−0.045
same,Z.LYZ.NS (standard z score),[2]; dose 0.40 uM,−0.396
same,Dose.FC.LYZ.NS (log2 fold change),[2]; dose 2.00 uM,−0.033
same,Z.LYZ.NS (standard z score),[2]; dose 2.00 uM,−0.291
same,Dose.FC.LYZ.NS (log2 fold change),[2]; dose 10.00 uM,−0.012
same,Z.LYZ.NS (standard z score),[2]; dose 10.00 uM,−0.102
S=C=Nc1cccc(NC(=S)NCCCCNC(=S)Nc2cccc(N=C=S)c2)c1 [MRS 2578],Z.CTG,ENR+CD organoids; dose 0.08 uM,−0.339
same,Z.CTG,ENR+CD organoids; dose 0.40 uM,0.146
same,Z.CTG,ENR+CD organoids; dose 2.00 uM,−0.381
same,Z.CTG,ENR+CD organoids; dose 10.00 uM,−0.544
same,Dose.FC.CTG,ENR+CD organoids; [7],−0.142 log2 fold change
same,Dose.FC.CTG,ENR+CD organoids; [8],0.061 log2 fold change
same,Dose.FC.CTG,ENR+CD organoids; [9],−0.159 log2 fold change
same,Dose.FC.CTG,ENR+CD organoids; [10],−0.228 log2 fold change
same,Dose.FC.LYZ.S,[1]; [7],0.095 log2 fold change
same,Dose.FC.LYZ.S,[1]; [8],0.067 log2 fold change
same,Dose.FC.LYZ.S,[1]; [9],0.023 log2 fold change
same,Dose.FC.LYZ.S,[1]; [10],0.013 log2 fold change
same,Z.LYZ.NS,[2]; dose 0.08 uM,1.011
same,Z.LYZ.NS,[2]; dose 0.40 uM,0.311
same,Z.LYZ.NS,[2]; dose 2.00 uM,0.270
same,Z.LYZ.NS,[2]; dose 10.00 uM,0.276
same,Dose.FC.LYZ.NS,[2]; [7],0.116 log2 fold change
same,Dose.FC.LYZ.NS,[2]; [8],0.036 log2 fold change
same,Dose.FC.LYZ.NS,[2]; [9],0.031 log2 fold change
same,Dose.FC.LYZ.NS,[2]; [10],0.032 log2 fold change
